The source of these data is patent US20120121591A1 (priority 2009, published 2012).

Each structure is given as a SMILES string.

Assay type in all cases: cell-based
One test addresses hKv1.3 (Homo sapiens, UniProt P22001). The test can be described thus: cell-based. The conditions noted are these: Kv1.3 (IWQ) IC50 (nM, Avg).
Test [1] concerns IL-2 secretion from T cells in human whole blood. The conditions noted are these: read-out: WB (IL-2) IC50 (nM, Avg).
The test system of test [2] is IFN-g secretion from T cells in human whole blood. The conditions noted are these: read-out: WB (IFNg) IC5- (nM, Avg).

Sequence of hKv1.3 (P22001 whole entry): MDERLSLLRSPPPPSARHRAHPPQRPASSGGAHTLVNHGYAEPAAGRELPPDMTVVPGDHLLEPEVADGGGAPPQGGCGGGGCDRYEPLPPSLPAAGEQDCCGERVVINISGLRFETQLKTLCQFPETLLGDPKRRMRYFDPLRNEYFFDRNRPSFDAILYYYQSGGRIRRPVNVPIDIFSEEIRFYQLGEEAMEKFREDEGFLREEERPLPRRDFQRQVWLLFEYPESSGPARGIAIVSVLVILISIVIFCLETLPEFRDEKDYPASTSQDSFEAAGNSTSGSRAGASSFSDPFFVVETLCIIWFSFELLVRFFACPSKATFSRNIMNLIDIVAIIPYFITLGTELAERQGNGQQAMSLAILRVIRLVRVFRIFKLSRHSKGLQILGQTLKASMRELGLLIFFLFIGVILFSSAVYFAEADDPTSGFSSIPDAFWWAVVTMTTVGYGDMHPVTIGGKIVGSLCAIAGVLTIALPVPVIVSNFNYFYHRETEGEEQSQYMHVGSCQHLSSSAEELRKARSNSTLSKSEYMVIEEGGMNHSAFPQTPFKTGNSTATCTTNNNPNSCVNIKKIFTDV

Turning to `CC[C@H](C)[C@@H]1NC(=O)[C@@H](NC(=O)[C@H](CO)NC(=O)[C@@H](N)CCCNC(=N)N)CSSC[C@@H](C(=O)O)NC(=O)[C@H]([C@@H](C)O)NC(=O)CNC(=O)[C@@H]2CSSC[C@@H]3NC(=O)[C@H](CCC(N)=O)NC(=O)[C@H](Cc4ccccc4)NC(=O)[C@H](C)NC(=O)[C@H]([C@@H](C)O)NC(=O)[C@H](CSSC[C@H](NC(=O)[C@H](Cc4ccccc4)NC(=O)[C@H](CO)NC(=O)[C@H](CC(C)C)NC(=O)[C@H](CCCNC(=N)N)NC(=O)[C@H](Cc4ccc(O)cc4)NC(=O)[C@H](CCCCN)NC(=O)[C@H](CCSC)NC(=O)[C@H](CO)NC(=O)[C@H](Cc4c[nH]cn4)NC(=O)[C@H](CCC(=O)O)NC3=O)C(=O)N[C@@H](CCCNC(=N)N)C(=O)N[C@@H](CCCCN)C(=O)N[C@@H]([C@@H](C)O)C(=O)N2)NC(=O)[C@H](CCCNC(=N)N)NC(=O)[C@H](CO)NC(=O)[C@H](CCCCN)NC(=O)[C@@H]2CCCN2C(=O)[C@H]([C@@H](C)CC)NC(=O)[C@H]([C@@H](C)O)NC(=O)[C@H](CC(=O)O)NC1=O` [[Glu18]ShK], the IC50 on hKv1.3 was 0.117 nM; in test [1] it was 0.047 nM; in test [2], 0.083 nM.

Regarding `CC[C@H](C)[C@@H]1NC(=O)[C@@H](NC(=O)[C@H](CO)NC(=O)[C@@H](N)CCCNC(=N)N)CSSC[C@@H](C(=O)O)NC(=O)[C@H]([C@@H](C)O)NC(=O)CNC(=O)[C@@H]2CSSC[C@@H]3NC(=O)[C@H](CCC(N)=O)NC(=O)[C@H](Cc4ccccc4)NC(=O)[C@H](C)NC(=O)[C@H]([C@@H](C)O)NC(=O)[C@H](CSSC[C@H](NC(=O)[C@H](Cc4ccccc4)NC(=O)[C@H](CO)NC(=O)[C@H](CC(C)C)NC(=O)[C@H](CCCNC(=N)N)NC(=O)[C@H](Cc4ccc(O)cc4)NC(=O)[C@H](CCCCN)NC(=O)[C@H](CCSC)NC(=O)[C@H](CCC(=O)O)NC(=O)[C@H](Cc4c[nH]cn4)NC(=O)[C@H](CCCCN)NC3=O)C(=O)N[C@@H](CCCNC(=N)N)C(=O)N[C@@H](CCCCN)C(=O)N[C@@H]([C@@H](C)O)C(=O)N2)NC(=O)[C@H](CCCNC(=N)N)NC(=O)[C@H](CO)NC(=O)[C@H](CCCCN)NC(=O)[C@@H]2CCCN2C(=O)[C@H]([C@@H](C)CC)NC(=O)[C@H]([C@@H](C)O)NC(=O)[C@H](CC(=O)O)NC1=O` [[Glu20]ShK], the IC50 on hKv1.3 was 100 nM; in test [1] it was 92 nM; in test [2], 92 nM.

With `CC[C@H](C)[C@@H]1NC(=O)[C@@H](NC(=O)[C@H](CO)NC(=O)[C@@H](N)CCCNC(=N)N)CSSC[C@@H](C(=O)O)NC(=O)[C@H]([C@@H](C)O)NC(=O)CNC(=O)[C@@H]2CSSC[C@@H]3NC(=O)[C@H](CCC(N)=O)NC(=O)[C@H](Cc4ccccc4)NC(=O)[C@H](C)NC(=O)[C@H]([C@@H](C)O)NC(=O)[C@H](CSSC[C@H](NC(=O)[C@H](Cc4ccccc4)NC(=O)[C@H](CO)NC(=O)[C@H](CC(C)C)NC(=O)[C@H](CCCNC(=N)N)NC(=O)[C@H](Cc4ccc(O)cc4)NC(=O)[C@H](CCCCN)NC(=O)[C@H](CCC(=O)O)NC(=O)[C@H](CO)NC(=O)[C@H](Cc4c[nH]cn4)NC(=O)[C@H](CCCCN)NC3=O)C(=O)N[C@@H](CCCNC(=N)N)C(=O)N[C@@H](CCCCN)C(=O)N[C@@H]([C@@H](C)O)C(=O)N2)NC(=O)[C@H](CCCNC(=N)N)NC(=O)[C@H](CO)NC(=O)[C@H](CCCCN)NC(=O)[C@@H]2CCCN2C(=O)[C@H]([C@@H](C)CC)NC(=O)[C@H]([C@@H](C)O)NC(=O)[C@H](CC(=O)O)NC1=O` [[Glu21]ShK], the results for the IC50 (against hKv1.3; in test [1]; in test [2]) were 3.33 nM, 18.5 nM and 28.1 nM, respectively.

With `CC[C@H](C)[C@@H]1NC(=O)[C@@H](NC(=O)[C@H](CO)NC(=O)[C@@H](N)CCCNC(=N)N)CSSC[C@@H](C(=O)O)NC(=O)[C@H]([C@@H](C)O)NC(=O)CNC(=O)[C@@H]2CSSC[C@@H]3NC(=O)[C@H](CCC(N)=O)NC(=O)[C@H](Cc4ccccc4)NC(=O)[C@H](C)NC(=O)[C@H]([C@@H](C)O)NC(=O)[C@H](CSSC[C@H](NC(=O)[C@H](Cc4ccccc4)NC(=O)[C@H](CO)NC(=O)[C@H](CCC(=O)O)NC(=O)[C@H](CCCNC(=N)N)NC(=O)[C@H](Cc4ccc(O)cc4)NC(=O)[C@H](CCCCN)NC(=O)[C@H](CCSC)NC(=O)[C@H](CO)NC(=O)[C@H](Cc4c[nH]cn4)NC(=O)[C@H](CCCCN)NC3=O)C(=O)N[C@@H](CCCNC(=N)N)C(=O)N[C@@H](CCCCN)C(=O)N[C@@H]([C@@H](C)O)C(=O)N2)NC(=O)[C@H](CCCNC(=N)N)NC(=O)[C@H](CO)NC(=O)[C@H](CCCCN)NC(=O)[C@@H]2CCCN2C(=O)[C@H]([C@@H](C)CC)NC(=O)[C@H]([C@@H](C)O)NC(=O)[C@H](CC(=O)O)NC1=O` [[Glu25]ShK], the IC50 was 0.24 nM at hKv1.3, 0.494 nM in test [1] and 0.678 nM in test [2].

Take `CC[C@H](C)[C@@H]1NC(=O)[C@@H](NC(=O)[C@H](CO)NC(=O)[C@@H](N)CCCNC(=N)N)CSSC[C@@H](C(=O)O)NC(=O)[C@H]([C@@H](C)O)NC(=O)CNC(=O)[C@@H]2CSSC[C@@H]3NC(=O)[C@H](CCC(N)=O)NC(=O)[C@H](Cc4ccccc4)NC(=O)[C@H](C)NC(=O)[C@H]([C@@H](C)O)NC(=O)[C@H](CSSC[C@H](NC(=O)[C@H](Cc4ccccc4)NC(=O)[C@H](CCC(=O)O)NC(=O)[C@H](CC(C)C)NC(=O)[C@H](CCCNC(=N)N)NC(=O)[C@H](Cc4ccc(O)cc4)NC(=O)[C@H](CCCCN)NC(=O)[C@H](CCSC)NC(=O)[C@H](CO)NC(=O)[C@H](Cc4c[nH]cn4)NC(=O)[C@H](CCCCN)NC3=O)C(=O)N[C@@H](CCCNC(=N)N)C(=O)N[C@@H](CCCCN)C(=O)N[C@@H]([C@@H](C)O)C(=O)N2)NC(=O)[C@H](CCCNC(=N)N)NC(=O)[C@H](CO)NC(=O)[C@H](CCCCN)NC(=O)[C@@H]2CCCN2C(=O)[C@H]([C@@H](C)CC)NC(=O)[C@H]([C@@H](C)O)NC(=O)[C@H](CC(=O)O)NC1=O` [[Glu26]ShK]: the IC50 against hKv1.3 is 0.317 nM; in test [1] it was 0.202 nM; in test [2], 0.4 nM.

Turning to `CC[C@H](C)[C@@H]1NC(=O)[C@@H](NC(=O)[C@H](CO)NC(=O)[C@@H](N)CCCNC(=N)N)CSSC[C@@H](C(=O)O)NC(=O)[C@H]([C@@H](C)O)NC(=O)CNC(=O)[C@@H]2CSSC[C@@H]3NC(=O)[C@H](CCC(N)=O)NC(=O)[C@H](Cc4ccccc4)NC(=O)[C@H](C)NC(=O)[C@H]([C@@H](C)O)NC(=O)[C@H](CSSC[C@H](NC(=O)[C@H](Cc4ccccc4)NC(=O)[C@H](CO)NC(=O)[C@H](CC(C)C)NC(=O)[C@H](CCCNC(=N)N)NC(=O)[C@H](Cc4ccc(O)cc4)NC(=O)[C@H](CCCCN)NC(=O)[C@H](CCSC)NC(=O)[C@H](CO)NC(=O)[C@H](Cc4c[nH]cn4)NC(=O)[C@H](CCCCN)NC3=O)C(=O)N[C@@H](CCC(=O)O)C(=O)N[C@@H](CCCCN)C(=O)N[C@@H]([C@@H](C)O)C(=O)N2)NC(=O)[C@H](CCCNC(=N)N)NC(=O)[C@H](CO)NC(=O)[C@H](CCCCN)NC(=O)[C@@H]2CCCN2C(=O)[C@H]([C@@H](C)CC)NC(=O)[C@H]([C@@H](C)O)NC(=O)[C@H](CC(=O)O)NC1=O` [[Glu29]ShK], the IC50 against hKv1.3 is 0.142 nM; in test [1], 0.73 nM; in test [2], 1.96 nM.

For `CC[C@H](C)[C@@H]1NC(=O)[C@@H](NC(=O)[C@H](CO)NC(=O)[C@@H](N)CCCNC(=N)N)CSSC[C@@H](C(=O)O)NC(=O)[C@H]([C@@H](C)O)NC(=O)CNC(=O)[C@@H]2CSSC[C@@H]3NC(=O)[C@H](CCC(N)=O)NC(=O)[C@H](Cc4ccccc4)NC(=O)[C@H](C)NC(=O)[C@H]([C@@H](C)O)NC(=O)[C@H](CSSC[C@H](NC(=O)[C@H](Cc4ccccc4)NC(=O)[C@H](CO)NC(=O)[C@H](CC(C)C)NC(=O)[C@H](CCCNC(=N)N)NC(=O)[C@H](Cc4ccc(O)cc4)NC(=O)[C@H](CCCCN)NC(=O)[C@H](CCSC)NC(=O)[C@H](CO)NC(=O)[C@H](Cc4c[nH]cn4)NC(=O)[C@H](CCCCN)NC3=O)C(=O)N[C@@H](CCCNC(=N)N)C(=O)N[C@@H](CCC(=O)O)C(=O)N[C@@H]([C@@H](C)O)C(=O)N2)NC(=O)[C@H](CCCNC(=N)N)NC(=O)[C@H](CO)NC(=O)[C@H](CCCCN)NC(=O)[C@@H]2CCCN2C(=O)[C@H]([C@@H](C)CC)NC(=O)[C@H]([C@@H](C)O)NC(=O)[C@H](CC(=O)O)NC1=O` [[Glu30]ShK], the IC50 came to 0.272 nM against hKv1.3, 0.019 nM in test [1] and 0.043 nM in test [2].

With `CC[C@H](C)[C@@H]1NC(=O)[C@@H](NC(=O)[C@H](CO)NC(=O)[C@@H](N)CCCNC(=N)N)CSSC[C@@H](C(=O)O)NC(=O)[C@H]([C@@H](C)O)NC(=O)CNC(=O)[C@@H]2CSSC[C@@H]3NC(=O)[C@H](CCC(N)=O)NC(=O)[C@H](Cc4ccccc4)NC(=O)[C@H](C)NC(=O)[C@H]([C@@H](C)O)NC(=O)[C@H](CSSC[C@H](NC(=O)[C@H](Cc4ccccc4)NC(=O)[C@H](CO)NC(=O)[C@H](CC(C)C)NC(=O)[C@H](CCCNC(=N)N)NC(=O)[C@H](Cc4ccc(O)cc4)NC(=O)[C@H](CCCCN)NC(=O)[C@H](CCSC)NC(=O)[C@H](CO)NC(=O)[C@H](Cc4c[nH]cn4)NC(=O)[C@H](CCCCN)NC3=O)C(=O)N[C@@H](CCCNC(=N)N)C(=O)N[C@@H](CCCCN)C(=O)N[C@@H](CCC(=O)O)C(=O)N2)NC(=O)[C@H](CCCNC(=N)N)NC(=O)[C@H](CO)NC(=O)[C@H](CCCCN)NC(=O)[C@@H]2CCCN2C(=O)[C@H]([C@@H](C)CC)NC(=O)[C@H]([C@@H](C)O)NC(=O)[C@H](CC(=O)O)NC1=O` [[Glu31]ShK], the IC50 amounted to 0.22 nM against hKv1.3, 0.242 nM in test [1] and 0.309 nM in test [2].
